Test results published in PubChem BioAssay AID2060626 (Molecular Pharmacology Branch, DTP, NCI, 2025).

System: 168753-222-R-J1-PDC complex spheroid viability
Assay: Anticancer human tumor 168753-222-R-J1-PDC patient-derived bladder carcinoma cell line growth inhibition [CLK]
Settings: for IC50: curve of first compound; for viability, T/C: stronger effect = lower value
From the text: A high-throughput screen of multi-cell type tumor spheroids was designed to identify active combinations of […] and targeted small molecules. Complex spheroids include a stromal component modeled by human endothelial cells (HUVEC) and fibroblasts modeled by human mesenchymal stem cells (MSCs). The concentration ranges selected for each drug and investigational agent were based upon clinically achievable concentrations if the clinical Cmax of the agent was known.
Compounds. The drugs and investigational agents: cirtuvivint (SM08502; NSC835563), CC-671 (NSC850746), vemurafenib (NSC761431), tapotoclax (NSC804041), sotorasib (NSC818433), adagrasib (NSC831453), MRTX-1133 (NSC836407), BAY2416964 (NSC825713), copanlisib (NSC816437), inavolisib (NSC800729), abemaciclib (NSC768073), osimertinib (NSC779217), entinostat (NSC756642), eltanexor (KPT-8602, NSC794443), venetoclax (NSC766270), ceralasertib (NSC777638), bortezomib (NSC756655), olaparib (NSC753686), talazoparib (NSC767125), alisertib (NSC759677), peposertib (NSC802822), gemcitabine (NSC613327), 5-fluorouracil (NSC19893), SN-38 (NSC673596), oxaliplatin (NSC266046), paclitaxel (NSC125973), and doxorubicin (NSC123127), were obtained from the National Cancer Institute (NCI) Developmental Therapeutics Program Chemical Repository. The FDA-approved anticancer drug set is available from the Developmental Therapeutics Program at https://dtp.cancer.gov/organization/dscb/obtaining/available plates.htm. […] The stock solutions were prepared in dimethyl sulfoxide (DMSO, Sigma-Aldrich, St. Louis, MO, cat. D2650), except for the platinum complexes which were prepared in saline (Quality Biological, Gaithersburg, MD, cat. 114-055-101), at 800-fold the tested concentration and stored at -70 degrees C prior to their use. All drugs and investigational agents were tested over a range starting from a high concentration at or near the clinical Cmax and decreasing in half-log increments. If the clinical Cmax for an agent had not been determined, the highest concentration tested was 10 microM.
Cell Culture. All cells were maintained in an incubator at 37 degrees C and 5% CO2 with 95% humidity. The PDC lines were cultured according to standard operating procedures established by the NCI PDMR. Briefly, all PDCs were thawed and cultured in Matrigel-coated flasks prepared with a working solution of 1X Ham's F-12 nutrient mix, without supplementation (Invitrogen, Waltham, MA, cat. 11765054), 100 U/mL penicillin-streptomycin (Invitrogen, cat. 15140122), and 2.5% Matrigel (Corning Inc., Corning, NY, cat. 354248) for the first three passages. The 947758-054-R-J2-PDC line was cultured in 6B/Colon 1A media, which includes advanced DMEM/F-12 (Thermo Fisher Scientific, cat. 12634028), 10 mM HEPES (Thermo Fisher Scientific, cat. 15630080), 1X GlutaMAX supplement (Thermo Fisher Scientific, cat. 35050061), 0.1 mg/mL primocin (InvivoGen, cat. ant-pm-2), 10% defined fetal bovine serum, heat inactivated (HyClone Laboratories Inc., cat. SH30070.03HI), 1.25 mM N-Acetyl-L-cysteine (Sigma-Aldrich, cat. A9165), 10 mM nicotinamide (Sigma-Aldrich, cat. N0636), 1X B-27 supplement (Thermo Fisher Scientific, cat. 17504044), 1X N-2 supplement (Thermo Fisher Scientific, cat. 17502048), and 10 microM Y-27632 dihydrochloride (Tocris Bioscience, cat. 1254). The 876862-298-R-J1-PDC was cultured in 6E media, which includes all 6B/Colon 1A media components plus 50% L-WRN conditioned media (ATCC, cat. CRL-3276), 50 ng/mL recombinant human EGF recombinant protein (hEGF; Thermo Fisher Scientific, cat. PHG0311), 10 ng/mL recombinant human fibroblast growth factor 10 (hGFG-10; PeproTech, cat. 100-26), 1 ng/mL recombinant human fibroblast growth factor 2 (hFGF-2; PeproTech, cat. 100-18B), and 1 µM prostaglandin E2 (PGE2; Tocris, cat. 2296). The 227483-062-R1-J1-PDC line was cultured in Panc media, containing all 6E components except hFGF-2, with the addition of 500 nM SB-431542 (Selleckchem, cat. S1067) and 10 nM gastrin (Tocris, cat. 3006). […]
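Note: viability measured after seven days of drug exposure.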
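Throughout, for viability, T/C: luminescence signal used as surrogate for viable cell amount; 100% = DMSO vehicle control wells.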

SMILES: CC(C)CC(NC(=O)C(Cc1ccccc1)NC(=O)c1cnccn1)B(O)O (configuration not stated) + CNC(=O)c1ccc(Nc2nc(OC3CCCC3)c3c(-c4ccc5nc(C)oc5c4)c[nH]c3n2)c(OC)c1
- IC50 (second compound 0.0316 µM): 2.09 nM
- IC50 (second compound 0.1 µM): 2.31 nM
- IC50 (second compound 0.316 µM): 1.8 nM
- IC50 (second compound 1 µM): < 0.949 nM
- IC50 (second compound 3.16 µM): < 0.949 nM
- IC50 (second compound 10 µM): < 0.949 nM
- viability, T/C (second compound 0.0316 µM, first compound 0.000949 µM): 98.6%
- viability, T/C (second compound 0.0316 µM, first compound 0.003 µM): 27.7%
- viability, T/C (second compound 0.0316 µM, first compound 0.00949 µM): 3.13%
- viability, T/C (second compound 0.0316 µM, first compound 0.03 µM): 0.6%
- viability, T/C (second compound 0.0316 µM, first compound 0.0949 µM): 1.66%
- viability, T/C (second compound 0.0316 µM, first compound 0.3 µM): 0.44%
- viability, T/C (second compound 0.1 µM, first compound 0.000949 µM): 89.3%
- viability, T/C (second compound 0.1 µM, first compound 0.003 µM): 38.4%
- viability, T/C (second compound 0.1 µM, first compound 0.00949 µM): 1.22%
- viability, T/C (second compound 0.1 µM, first compound 0.03 µM): 0.27%
- viability, T/C (second compound 0.1 µM, first compound 0.0949 µM): 0.53%
- viability, T/C (second compound 0.1 µM, first compound 0.3 µM): 2.04%
- viability, T/C (second compound 0.316 µM, first compound 0.000949 µM): 76.4%
- viability, T/C (second compound 0.316 µM, first compound 0.003 µM): 29%
- viability, T/C (second compound 0.316 µM, first compound 0.00949 µM): 0.8%
- viability, T/C (second compound 0.316 µM, first compound 0.03 µM): 0.28%
- viability, T/C (second compound 0.316 µM, first compound 0.0949 µM): 1.74%
- viability, T/C (second compound 0.316 µM, first compound 0.3 µM): 0.24%
- viability, T/C (second compound 1 µM, first compound 0.000949 µM): 38.4%
- viability, T/C (second compound 1 µM, first compound 0.003 µM): 26.5%
- viability, T/C (second compound 1 µM, first compound 0.00949 µM): 2.8%
- viability, T/C (second compound 1 µM, first compound 0.03 µM): 0.43%
- viability, T/C (second compound 1 µM, first compound 0.0949 µM): 2.22%
- viability, T/C (second compound 1 µM, first compound 0.3 µM): 1.45%
- viability, T/C (second compound 3.16 µM, first compound 0.000949 µM): 21.6%
- viability, T/C (second compound 3.16 µM, first compound 0.003 µM): 20.2%
- viability, T/C (second compound 3.16 µM, first compound 0.00949 µM): 0.44%
- viability, T/C (second compound 3.16 µM, first compound 0.03 µM): 0.17%
- viability, T/C (second compound 3.16 µM, first compound 0.0949 µM): 0.2%
- viability, T/C (second compound 3.16 µM, first compound 0.3 µM): 0.35%
- viability, T/C (second compound 10 µM, first compound 0.000949 µM): 21%
- viability, T/C (second compound 10 µM, first compound 0.003 µM): 18.4%
- viability, T/C (second compound 10 µM, first compound 0.00949 µM): 0.38%
- viability, T/C (second compound 10 µM, first compound 0.03 µM): 1.09%
- viability, T/C (second compound 10 µM, first compound 0.0949 µM): 1.85%
- viability, T/C (second compound 10 µM, first compound 0.3 µM): 0.25%
